Tests used:
[1] = Water activity study at 25° C. (acetone/water); type: physicochemical; settings: Acetone & water, protected by N2, 5 days
Experimental: Water activity experiments were conducted at 25° C. in 10 different water activities with 1 set of organic solvent/water mixtures (acetone/water) to determine critical water activity between anhydrate and hydrate.

[2] = Equilibration with solvents at 25° C.
Experimental: (§1) About 50 mg of drug substance was equilibrated in suitable amount of solvent at 25° C. for 2 weeks with a stirring plate (Table 30). Obtained suspension was filtered. The solid part (wet cake) was investigated by XRPD. When differences were observed, additional investigations were performed (e.g. DSC, TGA. FT-IR, PLM/SEM, etc.).
[…] The solid part (wet cake) was investigated by XRPD. If differences are observed, additional investigation will be performed (e.g. DSC, TGA, HPLC, etc.)

[3] = Equilibration with solvents at 50° C. for 1 week
Experimental: as §1, with “minimal” for “suitable”, “50°” for “25°”, “1 week” for “2 weeks”, “32).” for “30).”

[4] = Precipitation by addition of anti-solvent; settings: anti-solvent Heptane
Experimental: About 50 mg of drug substance was dissolved in a good solvent. Anti-solvent was added into the obtained solutions slowly. Precipitates were collected by filtration. The solid part (wet cake) was investigated by XRPD. When differences were observed, additional investigations were performed (e.g. DSC, TGA. FT-IR, PLM/SEM, etc.).
Scale up: About 200 mg of drug substance was dissolved in EtOAc. Heptane was added to the obtained solutions. The solid part (wet cake) was investigated by XRPD. When differences were observed, additional investigations were performed (e.g. DSC, TGA. FT-IR, PLM/SEM, etc.)

[5] = Crystallization from hot saturated solutions by slow cooling; settings: slow cooling 50° C. to 5° C. at 0.1° C./min
Experimental: (§2) Approximate 100 mg of drug substance was dissolved in the minimal amount of selected solvents at 50° C. Obtained solutions were cooled to 5° C. at 0.1° C./min. Precipitates were collected by filtration. The solid part (wet cake) was investigated by XRPD. When differences were observed, additional investigations were performed (e.g. DSC, TGA. FT-IR, PLM/SEM, etc.).
Scale up: About 200 mg of drug substance will be dissolved in MEK. Obtained solutions will be applied with cooling rate of 0.1° C./min for slow cooling.

[6] = Crystallization from hot saturated solutions by fast cooling; settings: fast cooling from 50° C. (ice bath); MEK; yellow solid
Experimental: as §2, with “put into an ice bath.” for “cooled to 5° C. at 0.1° C./min.”, “etc.). When no precipitation was obtained, the solutions were put in −20° C. freezer for crystallization.” for “etc.).”

[7] = Scale up experiment of Pattern A and Pattern D; settings: Slow cooling, MEK
Experimental: About 6 g API were used for Pattern A and Pattern D scale up.
Obtained suspension was filtered. The solid part (wet cake) was investigated by XRPD.
About 3 g drug substance were equilibrated in 8 mL of solvent (Water: Acetone, 10:90, v:v) at 25° C. for 1 week with a stirring plate. Obtained suspension was filtered. The solid part (wet cake) was investigated by XRPD.

[8] = 2 weeks, Heptane/Acetone, 80/20
[9] = 5 days, protected by N2, Acetone
[10] = 5 days, protected by N2, Heptane
[11] = 5 days, protected by N2, Toluene

**Q.** Which results are given for `CCC(=O)[O][Mn][O]C(=O)CC.c1cc2nc(c1)CN[C@H]1CCCC[C@@H]1NCCN[C@H]1CCCC[C@@H]1NC2` [API]?
**A.** Comments ([1]; a.w. 0): API degradation; purity ([1]; a.w. 0): 97.34%; XRPD ([1]; a.w. 0.103): Pattern A; purity ([1]; a.w. 0.103): Purity 98.27%; XRPD ([1]; a.w. 0.206): Pattern A; purity ([1]; a.w. 0.206): Purity 99.18%; XRPD ([1]; a.w. 0.301): Pattern D; purity ([1]; a.w. 0.301): Purity 99.77%; XRPD ([1]; a.w. 0.400): Pattern D; purity ([1]; a.w. 0.400): Purity 99.49%; XRPD ([1]; a.w. 0.501): Pattern D; purity ([1]; a.w. 0.501): Purity 99.33%; XRPD ([1]; a.w. 0.603): Pattern D; purity ([1]; a.w. 0.603): Purity 99.19%; Comments ([1]; a.w. 0.703): Clear solution; Comments ([1]; a.w. 0.803): Clear solution; Comments ([1]; a.w. 0.901): Clear solution; Comments ([2]; 2 weeks, EtOAc): API degradation,; purity ([2]; 2 weeks, EtOAc): purity 75.69%; purity ([2]; 2 weeks, Heptane): Purity 99.02%; Comments [2, 8]: API degradation,; purity [2, 8]: purity 94.83%; Comments ([2]; 2 weeks, Heptane/EtOAc, 80/20): API degradation,; purity ([2]; 2 weeks, Heptane/EtOAc, 80/20): purity 92.64%; Comments ([2]; 2 weeks, IPAC): API degradation,; purity ([2]; 2 weeks, IPAC): purity 84.49%; Comments ([2]; 2 weeks, MTBE): API degradation,; purity ([2]; 2 weeks, MTBE): purity 88.12%; Comments ([2]; 2 weeks, MTBE/Acetone, 80/20c): API degradation,; purity ([2]; 2 weeks, MTBE/Acetone, 80/20c): purity 87.39%; Comments ([2]; 2 weeks, MTBE/EIOAc, 80/20): API degradation,; purity ([2]; 2 weeks, MTBE/EIOAc, 80/20): purity 89.32%; Comments [2, 9]: API degradation; purity [2, 9]: 98.41%; Comments ([2]; 5 days, protected by N2, EtOAc): API degradation; purity ([2]; 5 days, protected by N2, EtOAc): 97.78%; Comments [2, 10]: API degradation; purity [2, 10]: 99.85%; Comments ([2]; 5 days, protected by N2, IPAC): API degradation; purity ([2]; 5 days, protected by N2, IPAC): 98.30%; Comments ([2]; 5 days, protected by N2, MEK): API degradation; purity ([2]; 5 days, protected by N2, MEK): 97.52%; Comments ([2]; 5 days, protected by N2, MTBE): API degradation; purity ([2]; 5 days, protected by N2, MTBE): 98.62%; Comments [2, 11]: API degradation; purity [2, 11]: 92.88%; Comments ([3]; Heptane): API degradation; purity ([3]; Heptane): 94.65%; Comments ([3]; Heptane/Acetone, 80/20): API degradation; purity ([3]; Heptane/Acetone, 80/20): 95.63%; Comments ([3]; Heptane/EtOAc, 80/20): API degradation; purity ([3]; Heptane/EtOAc, 80/20): 85.84%; Comments ([3]; Heptane/EtOH, 80/20): API was soluble in the solvent; Comments ([3]; Heptane/IPA, 80/20): API was soluble in the solvent; Comments ([3]; MTBE): API degradation; purity ([3]; MTBE): 92.26%; Comments ([3]; MTBE/Acetone, 80/20): API degradation; purity ([3]; MTBE/Acetone, 80/20): 93.80%; Comments ([3]; MTBE/EtOAc, 80/20): API degradation; purity ([3]; MTBE/EtOAc, 80/20): 87.67%; Comments ([3]; MTBE/EtOH, 80/20): API was soluble in the solvent; Comments ([3]; MTBE/IPA, 80/20): API was soluble in the solvent; purity ([4]; solvent Acetone): purity 99.93%; purity ([4]; solvent EtOAc): purity 99.95%; Comments ([5]; Acetone): API was soluble in the solvent; purity ([5]; EtOAc): White solid, purity 100%; Comments ([5]; IPA): API was soluble in the solvent; Comments ([5]; IPAC): API was soluble in the solvent; purity ([5]; MEK): White solid, purity 100%; Comments ([5]; Water): API was soluble in the solvent; purity [6]: Yellow solid, 94.19%; Comments [7]: API degradation, purity; purity [7]: 93.4%
